Results from article PMC9952466, “Characterization of Antioxidant and α-Glucosidase Inhibitory Compounds of Cratoxylum formosum ssp. pruniflorum and Optimization of Extraction Condition” (Antioxidants, 2023).

Assays:
[1] = system: α-glucosidase from Saccharomyces cerevisiae (EC 3.2.1.20); assay: α-glucosidase inhibitory effect (p-nitrophenyl α-D-glucopyranoside, absorbance 405 nm); type: biochemical
Protocol: (§1) The inhibitory effect on α-glucosidase was measured using α-glucosidase from Saccharomyces cerevisiae (EC 3.2.1.20). A test sample was mixed with 80 μL enzyme buffer and 10 μL α-glucosidase and incubated for 15 min at 37 °C. Then, after the addition of 10 μL p-nitrophenyl α-D-glucopyranoside solution for enzyme reaction, the amount of p-nitrophenol that was cleaved by the enzyme was determined by measuring the absorbance at 405 nm in a 96-well microplate reader. Acarbose was used as a positive control. The antioxidant activity was evaluated by measuring the DPPH radical scavenging activity using ascorbic acid as a positive control.

[2] = antioxidant activity by DPPH radical scavenging; conditions: for DPPH radical scavenging activity: at 50 μM; for antioxidant activity (in words): DPPH radical scavenging
Protocol: as §1

| Compound | α-glucosidase inhibitory activity (in words) [1] | DPPH radical scavenging activity [2] | antioxidant activity (in words) [2] |
| --- | --- | --- | --- |
| Oc1cc(O)c2c(c1)O[C@H](c1ccc(O)c(O)c1)[C@H](O)C2 [Compound 21, epicatechin] | good inhibition |  |  |
| COc1cc2c(=O)c3c(O)c(O)c(O)cc3oc2cc1O [Compound 17, caloxanthone E] |  | more than 50% |  |
| O=C(c1ccccc1)c1cc(O)c(O)c(OC2OC(CO)C(O)C(O)C2O)c1 (stereo not drawn) [Compound 19, pruniflonone B] | weak effect |  | weak effect |
| O=c1c2cc(O)c(O)cc2oc2cc(O)c([C@@H]3O[C@H](CO)[C@@H](O)[C@H](O)[C@H]3O)c(O)c12 [Compound 18, mangiferin] |  | more than 50% |  |
| isocudraniaxanthone B [Compound 3] |  | more than 50% |  |
| CC(C)=CCc1c(O)c(O)cc2c(=O)c3c(O)cc(O)cc3oc12 [Compound 1, cochinchinone F] | reduced the efficacy |  |  |
| CC(C)=CCc1c(O)cc2oc3cc(O)c(O)c(CC=C(C)C)c3c(=O)c2c1O [Compound 6, γ-mangostin] |  | more than 50% |  |
| CC(C)=CCc1c(O)c(O)c(C/C=C(\C)CCCC(C)(C)O)c2oc3ccc(O)cc3c(=O)c12 [Compound 16, pruniflonone A] |  |  | weak efficacy |
